The values below come from ChEMBL document CHEMBL1125985, “Tubulin binding of conformationally restricted bis-aryl compounds” (Bioorg Med Chem Lett, 1991).

As usually defined, the IC50 is the midpoint of a concentration-inhibition curve. Read a high IC50 as lower potency.

The target in the experiment is Tubulin (Bos taurus, UniProt Q6B856+Q862L2+Q862F3). The experiment can be described thus: In vitro inhibition of purified bovine brain tubulin polymerisation in the absence of microtubule-associated proteins.
Compound `COc1ccc(Cc2cc(OC)c(OC)c(OC)c2)cc1O` registered a half-maximal inhibitory concentration (IC50) of 1.5e-06 M. The result for `COc1ccc(CCCCc2cc(OC)c(OC)c(OC)c2)cc1O` reads 5.8e-06 M; that for `COc1ccc(CCCc2cc(OC)c(OC)c(OC)c2)cc1O`, 2.4e-06 M. Regarding `COc1ccc(CCc2cc(OC)c(OC)c(OC)c2)cc1O`, the IC50 turned out to be 1.4e-06 M. Compound `COc1cc2c(c(OC)c1OC)C(c1ccc3c(c1)OCO3)CC2` (stereo unspecified) came in with an IC50 of more than 0.0002 M. For `COc1cc2c(c(OC)c1OC)C(c1ccc3c(c1)OCO3)CCC2` (stereo unspecified), the IC50 is listed as more than 0.0002 M.

Turning to `COc1cc2c(cc1O)CCCc1cc(OC)c(OC)c(OC)c1-2`, the IC50 is 5.3e-06 M. The compound `COc1ccc(-c2ccc(OC)c(=O)cc2)c(OC)c1OC` came in with an IC50 of 7.5e-06 M. For `COc1cc2c(cc1O)CCc1cc(OC)c(OC)c(OC)c1-2` the value was 0.000104 M; for `COc1cc2c(cc1O)CCCCc1cc(OC)c(OC)c(OC)c1-2`, more than 0.000125 M; for `COc1cc(C2CCCc3cc4c(cc32)OCO4)cc(OC)c1OC` (stereo unspecified), 2.4e-06 M. The result for `COc1ccc(-c2ccc3c(c2)OCO3)c(OC)c1OC` reads 0.00015 M; that for `COc1cc(-c2ccc(OC)c(OC)c2OC)ccc1O`, 0.000098 M; that for `COc1ccc(CC(OC(C)=O)c2cc(OC)c(OC)c(OC)c2)cc1O` (stereo unspecified), 5e-06 M. For `COc1cc(C2CCc3cc4c(cc32)OCO4)cc(OC)c1OC` (stereo unspecified) the value was 0.000012 M.

In the case of `COc1cc(Cc2ccc3c(c2)OCO3)cc(OC)c1OC`, the IC50 is 0.000067 M.
